Measurements reported in PubChem BioAssay (NCI).
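Where inhibition never reached the appropriate level, the endpoint shown equals the highest concentration tested. Otherwise, values were interpolated linearly from a five-concentration, 48-hour dose response in 96-well plates. GI50 = concentration required for 50% inhibition of growth. TGI is the concentration that stops growth completely.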

Legend:
Experiment in all cases: NCI anticancer screen, dose series, 48 h
[1] = system: RXF 393 renal
[2] = system: NCI/ADR-RES ovarian
[3] = system: UACC-62 melanoma
[4] = system: SF-539 CNS
[5] = system: UACC-257 melanoma
[6] = system: SN12C renal
[7] = system: OVCAR-3 ovarian
[8] = system: OVCAR-5 ovarian
[9] = system: MDA-MB-435
[10] = system: A498 renal
[11] = system: OVCAR-8 ovarian
[12] = system: TK-10 renal
[13] = system: CAKI-1 renal
[14] = system: MALME-3M melanoma
[15] = system: M14 melanoma
[16] = system: SNB-75 CNS
[17] = system: IGROV1 ovarian
[18] = system: PC-3 prostate
[19] = system: COLO 205 colon
[20] = system: ACHN renal
[21] = system: SNB-19 CNS
[22] = system: KM12 colon
[23] = system: HOP-92 NSCLC
[24] = system: NCI-H460 lung
[25] = system: SW-620 colon
[26] = system: DU-145 prostate
[27] = system: HCC-2998 colon
[28] = system: NCI-H226 lung
[29] = system: SF-268 CNS
[30] = system: SF-295 CNS
[31] = system: SK-MEL-2 melanoma
[32] = system: EKVX NSCLC
[33] = system: NCI-H522 lung
[34] = system: NCI-H23 lung
[35] = system: HCT-116 colon
[36] = system: T-47D breast
[37] = system: RPMI-8226 leukemia
[38] = system: HCT-15 colon
[39] = system: MDA-MB-231 breast
[40] = system: HOP-62 NSCLC
[41] = system: A549 NSCLC
[42] = system: BT-549 breast
[43] = system: SK-OV-3 ovarian
[44] = system: SK-MEL-28 melanoma
[45] = system: UO-31 renal
[46] = system: MCF7 breast
[47] = system: OVCAR-4 ovarian
[48] = system: SR leukemia
[49] = system: HS 578T breast
[50] = system: 786-0 renal
[51] = system: HT29 colon
[52] = system: U251 CNS
[53] = system: SK-MEL-5 melanoma
[54] = system: LOX IMVI melanoma
[55] = system: K-562 leukemia
[56] = system: MOLT-4 leukemia
[57] = system: CCRF-CEM leukemia
[58] = system: MDA-N

COc1nc(=O)n(C2C=CC(=O)O2)cc1F (stereo not drawn)
GI50 [1]: 1.94 µM | TGI [1]: 5.03 µM | GI50 [2]: 10.1 µM | TGI [2]: 37.4 µM | GI50 [3]: 5.53 µM | TGI [3]: 18.7 µM | GI50 [4]: 2.22 µM | TGI [4]: 5.77 µM | GI50 [5]: 11.6 µM | TGI [5]: 31.4 µM | GI50 [6]: 11.6 µM | TGI [6]: 25.7 µM | GI50 [7]: 3.26 µM | TGI [7]: 11.2 µM | GI50 [8]: 15.2 µM | TGI [8]: 28.6 µM | GI50 [9]: 5.23 µM | TGI [9]: 27.6 µM | GI50 [10]: 16.2 µM | TGI [10]: 38.1 µM | GI50 [11]: 23.9 µM | TGI [11]: > 100 µM | GI50 [12]: 2.64 µM | TGI [12]: 12.2 µM | GI50 [13]: 2.67 µM | TGI [13]: 8.7 µM | GI50 [14]: 1.8 µM | TGI [14]: 6.95 µM | GI50 [15]: 5.82 µM | TGI [15]: 20.6 µM | GI50 [16]: 14.3 µM | TGI [16]: 43.1 µM | GI50 [17]: 8.69 µM | TGI [17]: 23.2 µM | GI50 [18]: 19.8 µM | TGI [18]: 62.4 µM | GI50 [19]: 1.71 µM | TGI [19]: 3.62 µM | GI50 [20]: 2.11 µM | TGI [20]: 5.45 µM | GI50 [21]: 22.3 µM | TGI [21]: 57 µM | GI50 [22]: 11.7 µM | TGI [22]: 23.9 µM | GI50 [23]: 1.85 µM | TGI [23]: 11.7 µM | GI50 [24]: 12.5 µM | TGI [24]: 28.7 µM | GI50 [25]: 4.19 µM | TGI [25]: 15.8 µM | GI50 [26]: 11.1 µM | TGI [26]: 28.2 µM | GI50 [27]: 12.9 µM | TGI [27]: 25.5 µM | GI50 [28]: 16.9 µM | TGI [28]: 56.6 µM | GI50 [29]: 15.5 µM | TGI [29]: 37.3 µM | GI50 [30]: 22.9 µM | TGI [30]: 66.1 µM | GI50 [31]: 16.5 µM | TGI [31]: 54.1 µM | GI50 [32]: 11.3 µM | TGI [32]: > 100 µM | GI50 [33]: 2.33 µM | TGI [33]: 8.72 µM | GI50 [34]: 8.06 µM | TGI [34]: 25.5 µM | GI50 [35]: 2.05 µM | TGI [35]: 4.81 µM | GI50 [36]: 2.24 µM | TGI [36]: 7.24 µM | GI50 [37]: 3.26 µM | TGI [37]: 13.4 µM | GI50 [38]: 2.59 µM | TGI [38]: 12 µM | GI50 [39]: 12.7 µM | TGI [39]: 25.9 µM | GI50 [40]: 29.7 µM | TGI [40]: 81.2 µM | GI50 [41]: 25.9 µM | TGI [41]: 87.3 µM | GI50 [42]: 8.29 µM | TGI [42]: 24.1 µM | GI50 [43]: 25.8 µM | TGI [43]: 62.3 µM | GI50 [44]: 6.92 µM | TGI [44]: 20.1 µM | GI50 [45]: 5.18 µM | TGI [45]: 18.3 µM | GI50 [46]: 2.3 µM | TGI [46]: 10.9 µM | GI50 [47]: 3.09 µM | TGI [47]: 15.5 µM | GI50 [48]: 1.87 µM | TGI [48]: 5.86 µM | GI50 [49]: 13.4 µM | TGI [49]: 40.8 µM | GI50 [50]: 12.1 µM | TGI [50]: 25.1 µM | GI50 [51]: 4.63 µM | TGI [51]: 16.7 µM | GI50 [52]: 14.6 µM | TGI [52]: 29.1 µM | GI50 [53]: 4.91 µM | TGI [53]: 18.6 µM | GI50 [54]: 10.9 µM | TGI [54]: 22.9 µM

CSc1csc(-c2ccc(-c3ccc(-c4cc(SC)cs4)s3)s2)c1
TGI [2]: > 100 µM | TGI [3]: > 100 µM | TGI [4]: > 100 µM | TGI [5]: > 100 µM | TGI [6]: > 100 µM | TGI [7]: > 100 µM | TGI [8]: > 100 µM | TGI [9]: > 100 µM | TGI [12]: > 100 µM | TGI [14]: > 100 µM | TGI [15]: > 100 µM | TGI [16]: > 100 µM | TGI [17]: > 100 µM | TGI [18]: > 100 µM | TGI [19]: > 100 µM | TGI [20]: > 100 µM | TGI [21]: > 100 µM | TGI [22]: > 100 µM | TGI [55]: > 100 µM | TGI [24]: > 100 µM | TGI [25]: > 100 µM | TGI [56]: > 100 µM | TGI [27]: > 100 µM | TGI [28]: > 100 µM | TGI [29]: > 100 µM | TGI [30]: > 100 µM | TGI [31]: > 100 µM | TGI [32]: > 100 µM | TGI [34]: > 100 µM | TGI [35]: > 100 µM | TGI [37]: > 100 µM | TGI [38]: > 100 µM | TGI [39]: > 100 µM | TGI [57]: > 100 µM | TGI [40]: > 100 µM | TGI [41]: > 100 µM | TGI [42]: > 100 µM | TGI [58]: > 100 µM | TGI [43]: > 100 µM | TGI [44]: > 100 µM | TGI [45]: > 100 µM | TGI [46]: > 100 µM | TGI [47]: > 100 µM | TGI [48]: > 100 µM | TGI [49]: > 100 µM | TGI [50]: > 100 µM | TGI [51]: > 100 µM | TGI [52]: > 100 µM | TGI [53]: > 100 µM | TGI [54]: > 100 µM
